Laboratory results taken from patent US8119661B2, “Piperidine derivatives and their use as muscarinic receptor modulators” (AstraZeneca AB, priority 2007, dated 2012).

Experiments:
Type in all cases: cell-based
[1] = biological target: T1, hM1 (human Muscarinic receptor subtype 1) (Homo sapiens, UniProt P11229); experiment: Human M1 calcium mobilization FLIPR assay; conditions: CHO cells expressing hM1, intracellular Ca2+ release
T1 construct: expressed in transfected cells; host or cells: CHO cells (Chinese hamster ovary cells, ATCC)
T1 sequence (P11229 1-460): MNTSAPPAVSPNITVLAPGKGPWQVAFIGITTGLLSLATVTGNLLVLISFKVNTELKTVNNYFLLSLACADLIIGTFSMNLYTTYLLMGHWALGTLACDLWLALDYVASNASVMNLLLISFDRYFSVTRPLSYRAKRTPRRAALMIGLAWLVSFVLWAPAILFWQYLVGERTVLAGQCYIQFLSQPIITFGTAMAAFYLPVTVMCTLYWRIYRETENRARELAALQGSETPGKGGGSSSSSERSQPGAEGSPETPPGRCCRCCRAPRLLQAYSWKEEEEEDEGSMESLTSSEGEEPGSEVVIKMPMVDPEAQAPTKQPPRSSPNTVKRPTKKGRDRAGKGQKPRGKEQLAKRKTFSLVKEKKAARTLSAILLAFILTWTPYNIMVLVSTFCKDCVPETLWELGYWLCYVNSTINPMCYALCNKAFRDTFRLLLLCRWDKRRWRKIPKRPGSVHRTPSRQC
Experimental: (§1) The compound activity in the present invention (EC50 or IC50) is measured using a 384 plate-based imaging assay that monitors drug induced intracellular Ca^2+ release in whole cells. Activation of hM1 (human Muscarinic receptor subtype 1, gene bank access NM_000738), rM1 (rat Muscarinic receptor subtype 1, gene bank access NM_080773), hM3 (human Muscarinic receptor subtype 3, gene bank access NM_000740NM_000740) and hM5 (human Muscarinic receptor subtype 5, gene bank access NM_0121258), receptors expressed in CHO cells (Chinese hamster ovary cells, ATCC) is quantified in a Molecular Devices FLIPR II™ instrument as an increase in fluorescent signal. Inhibition of hM3 and hM5 by compounds is determined by the decrease in fluorescent signal in response to 2 nM acetylcholine activation.
(§2) Prior to experiment, the cell culture medium is removed from the plates by inversion. […] Plates are incubated at 37° C. for 60 minutes prior to start the experiment. The incubation is terminated by washing the cells four times in assay buffer, leaving a residual 25 μl buffer per well. Cell plates are then transferred to the FLIPR, ready for compound additions.
(§3) The day of experiment, acetylcholine and compounds are diluted in assay buffer in three-fold concentration range (10 points serial dilution) for addition by FLIPR instrument. For all calcium assays, a baseline reading is taken for 10 seconds followed by the addition of 12.5 μl of compounds, resulting in a total well volume of 37.5 μl. Data is collected every second for 60 pictures and then every 6 seconds for 20 pictures prior to the addition of agonist. For hM3 and hM5, before agonist addition, a second baseline reading is taken for 10 seconds followed by the addition of 12.5 μl of agonist or buffer, producing a final volume of 50 μl. After agonist stimulation, the FLIPR continues to collect data every second for 60 pictures and then every 6 seconds for 20 pictures. The fluorescence emission is read using filter 1 (emission 510-570 nm) by the FLIPR on board CCD camera.
(§4) Calcium mobilization output data are calculated as the maximal relative fluorescence unit (RFU) minus the minimal value for both compound and agonist reading frame (except for hM1 and rM1 using only the maximal RFU). Data are analyzed using sigmoidal fits of a non-linear curve-fitting program (XLfit version 4.2.2 Excel add-in version 4.2.2 build 18 math 1Q version 2.1.2 build 18). All pEC50 and pIC50 values are reported as arithmetic means±standard error of mean of ‘n’ independent experiments.

[2] = biological target: T2, hM3 (human Muscarinic receptor subtype 3) (Homo sapiens, UniProt P20309); experiment: Human M3 calcium mobilization FLIPR assay; conditions: CHO cells expressing hM3, intracellular Ca2+ release
T2 construct: expressed in transfected cells; host or cells: CHO cells (Chinese hamster ovary cells, ATCC)
Experimental: as §1, §2, §3, §4

[3] = biological target: T3, hM5 (human Muscarinic receptor subtype 5) (Homo sapiens, UniProt P08912); experiment: Human M5 calcium mobilization FLIPR assay; conditions: CHO cells expressing hM5, intracellular Ca2+ release
T3 construct: expressed in transfected cells; host or cells: CHO cells (Chinese hamster ovary cells, ATCC)
T3 sequence (P08912 1-532): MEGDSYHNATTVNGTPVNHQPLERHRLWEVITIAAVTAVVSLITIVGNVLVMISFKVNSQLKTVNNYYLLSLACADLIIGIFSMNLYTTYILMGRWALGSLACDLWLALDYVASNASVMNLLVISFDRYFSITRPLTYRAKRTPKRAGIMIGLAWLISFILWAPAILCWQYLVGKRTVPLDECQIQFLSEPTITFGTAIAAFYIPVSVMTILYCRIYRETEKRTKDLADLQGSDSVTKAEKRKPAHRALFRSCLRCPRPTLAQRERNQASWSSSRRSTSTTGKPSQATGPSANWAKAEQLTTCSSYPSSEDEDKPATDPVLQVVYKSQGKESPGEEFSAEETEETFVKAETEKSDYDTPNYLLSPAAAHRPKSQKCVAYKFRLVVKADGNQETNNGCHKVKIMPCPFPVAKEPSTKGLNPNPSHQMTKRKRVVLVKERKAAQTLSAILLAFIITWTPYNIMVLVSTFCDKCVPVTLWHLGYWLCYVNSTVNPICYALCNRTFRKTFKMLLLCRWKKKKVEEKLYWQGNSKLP
Experimental: as §1, §2, §3, §4

T2 sequence (P20309 whole entry): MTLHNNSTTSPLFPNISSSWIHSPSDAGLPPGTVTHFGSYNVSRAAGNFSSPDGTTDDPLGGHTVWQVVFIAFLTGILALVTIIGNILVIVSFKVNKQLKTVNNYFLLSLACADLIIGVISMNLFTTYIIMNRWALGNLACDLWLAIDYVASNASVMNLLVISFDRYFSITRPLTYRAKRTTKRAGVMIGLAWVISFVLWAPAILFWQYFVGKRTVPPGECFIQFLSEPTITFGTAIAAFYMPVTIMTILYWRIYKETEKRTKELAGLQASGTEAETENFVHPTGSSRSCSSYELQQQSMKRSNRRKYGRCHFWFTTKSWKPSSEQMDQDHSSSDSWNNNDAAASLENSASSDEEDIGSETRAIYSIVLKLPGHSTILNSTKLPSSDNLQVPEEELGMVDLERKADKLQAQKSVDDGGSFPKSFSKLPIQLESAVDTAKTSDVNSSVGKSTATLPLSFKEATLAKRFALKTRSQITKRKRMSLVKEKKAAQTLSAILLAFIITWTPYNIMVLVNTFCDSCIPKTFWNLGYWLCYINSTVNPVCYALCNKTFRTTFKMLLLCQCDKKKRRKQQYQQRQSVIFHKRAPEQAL

Structure (SMILES) | EC50 [1] | EC50 [2] | EC50 [3]
CCOC(=O)N1CCC(C)(N2CCC(N3C(=O)N[C@H]4CCCC[C@@H]43)CC2)C1 (single isomer, unassigned) [Example 22] | 3 nM | > 25600 nM | 412 nM
CC1(N2CCC(N3C(=O)C[C@H]4CCCC[C@@H]43)CC2)CCN(C(=O)C2CC2)CC1 [Example 15, (3aR,7aS)-1-[1-[1-(cyclopropanecarbonyl)-4-methyl-4-piperidyl]-4-piperidyl]-3a,4,5,6,7,7a-hexahydro-3H-indol-2-one] | 36 nM | > 40000 nM | > 40000 nM
CC(C)OC(=O)N1CCC(C)(N2CCC(N3C(=O)N[C@@H]4CCCC[C@@H]43)CC2)CC1 (relative stereo) [Example 13, Propan-2-yl 4-[4-[(cis)-2-oxo-3a,4,5,6,7,7a-hexahydro-3H-benzoimidazol-1-yl]-1-piperidyl]-4-methyl-piperidine-1-carboxylate] | 54 nM | > 40000 nM | > 40000 nM
